Laboratory results taken from PubChem BioAssay (NCI).
Where “and” joins values, the source holds several entries; their conditions need not be identical. Equal entries are not always repeated.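 Five concentrations, 48 hours, 96-well plates. GI50: concentration for 50% inhibition of growth. TGI: total growth inhibition.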

Experiments:
Assay in all cases: DTP human tumour cell line panel, 48 h
SNB-19 CNS = tested on: SNB-19 CNS
A549 NSCLC = tested on: A549 NSCLC
MCF7 breast = tested on: MCF7 breast
SW-620 colon = tested on: SW-620 colon
SF-268 CNS = tested on: SF-268 CNS
DU-145 prostate = tested on: DU-145 prostate
HL-60(TB) leukemia = tested on: HL-60(TB) leukemia
UACC-257 melanoma = tested on: UACC-257 melanoma
CCRF-CEM leukemia = tested on: CCRF-CEM leukemia
NCI-H460 lung = tested on: NCI-H460 lung

Structure (SMILES)	GI50 (SNB-19 CNS)	TGI (SNB-19 CNS)	GI50 (A549 NSCLC)	TGI (A549 NSCLC)	GI50 (MCF7 breast) [µM]	TGI (MCF7 breast) [µM]	GI50 (SW-620 colon)	TGI (SW-620 colon)	GI50 (SF-268 CNS)	TGI (SF-268 CNS)	GI50 (DU-145 prostate) [µM]	TGI (DU-145 prostate) [µM]	GI50 (HL-60(TB) leukemia)	TGI (HL-60(TB) leukemia)	GI50 (UACC-257 melanoma)	TGI (UACC-257 melanoma)	GI50 (CCRF-CEM leukemia)	TGI (CCRF-CEM leukemia)	GI50 (NCI-H460 lung)	TGI (NCI-H460 lung)
O=C(CCCCCCc1nc2ccc(Br)cc2[nH]1)NO	0.689 µM	> 30 µM	0.578 µM	11.3 µM	0.425	> 100	0.266 µM	1.04 µM	0.67 µM	3.3 µM	0.621	5.84	0.461 µM	> 100 µM	0.354 µM	7.17 µM	0.405 µM	> 100 µM	0.386 µM	10.6 µM
COc1ccc(CN2CCc3c(Cl)nc(N)nc3C2=O)c(OC)c1	15.8 µM	33.3 µM	47.2 µM	> 100 µM	15.7	61.3	13.6 µM	28.1 µM	13.6 µM	27.3 µM	18.2	40.3	1.67 µM	5.52 µM	19.3 µM	49.1 µM	17 µM	56.6 µM	18.6 µM	42.6 µM
O=C(Nc1ccc(Cl)cc1)NS(=O)(=O)c1ccc2c(c1)CCC2	18.6 µg/mL	> 100 µM and 53.5 µg/mL	11.9 µg/mL	97.7 µM and 31.3 µg/mL		81.8	10.6 µg/mL	> 100 µM and 33.6 µg/mL	15.7 µg/mL	> 100 µM and 35.7 µg/mL		92	24.1 µg/mL	> 78.2 µM and 65.8 µg/mL	27.8 µg/mL	> 100 µM and 80.6 µg/mL	10.5 µg/mL	> 100 µM and 57.4 µg/mL	7.71 µg/mL	> 46.4 µM and 36.6 µg/mL
Cc1nc2c(cnn2-c2ccnc3c(C(F)(F)F)cccc23)c(=O)o1	> 100 µM	> 100 µM	> 100 µM	> 100 µM	> 100	> 100	> 100 µM	> 100 µM	> 100 µM	> 100 µM	> 100	> 100	> 100 µM	> 100 µM	> 100 µM	> 100 µM	> 100 µM	> 100 µM	> 100 µM	> 100 µM
COC1CC(OC2OC(CO)C(O)C(O)C2O)/C(=C\C#N)C(O)C1OC (stereo not drawn)		> 100 µM		> 100 µM		> 100		> 100 µM		> 100 µM		> 100		> 100 µM		> 100 µM		> 100 µM		> 100 µM
C=C1C(=O)OC(CCCCCCCC)C1C(=O)O (stereo not drawn)	17 µM	32.1 µM	23.6 µM	> 67.6 µM	12.6	26.5	15.2 µM	30.7 µM	19.5 µM	39.6 µM	15.2	30.1	16.6 µM	46.4 µM	11.6 µM	25 µM	5.49 µM	38.7 µM	18.6 µM	37.5 µM
COc1c(O)c2ccccc2c2cc(O)ccc12		28.2 µM		23.9 µM		8.22		6.69 µM		28.8 µM		21		27 µM		5.24 µM		73.8 µM		23.3 µM
CN(NC(=O)/C(=C/c1ccc(O)cc1)NC(=O)c1ccccc1)c1ccnc2cc(Cl)ccc12		32.6 µM		38.4 µM		30.4		47.2 µM		36 µM		56.9		5.84 µM		33.9 µM		61.5 µM		31.2 µM
O=P(O)(O)OC1C(OP(=O)(O)O)C(OP(=O)(O)O)C(OP(=O)(O)O)C(OP(=O)(O)O)C1OP(=O)(O)O (stereo not drawn)	> 2000 µM	> 2000 µM	> 2000 µM	> 2000 µM	> 2000	> 2000	> 2000 µM	> 2000 µM	> 2000 µM	> 2000 µM	> 2000	> 2000	> 2000 µM	> 2000 µM	> 2000 µM	> 2000 µM	> 100 µM	> 2000 µM	> 2000 µM	> 2000 µM
COc1c2occc2c(OC)c2c(=O)c(S(=O)(=O)NC(=O)Nc3ccc(Cl)cc3)coc12		> 10 µM		> 10 µM		> 10		> 10 µM		> 10 µM		> 10		> 10 µM		> 10 µM		> 10 µM		> 10 µM
CC1CN(CCO)CC(C)O1 (stereo not drawn)		> 100 µM		> 100 µM		> 100		> 100 µM		> 100 µM		> 100		> 100 µM		> 100 µM		> 100 µM		> 100 µM
Cc1ncc(C(=O)Nc2ccc(CN3CCN(C)CC3)c(C(F)(F)F)c2)cc1C#Cc1c(N)ncc2ccc(C#N)cc12	6.71 µM	15.6 µM	2.82 µM	14.4 µM	0.693	11.4	0.661 µM	10.3 µM	1.4 µM	9.7 µM	0.976	7.43	9.24 µM	> 50 µM	0.473 µM	10.5 µM	1.41 µM	16.5 µM	4.05 µM	12.1 µM
CC[C@]1(O)C[C@@H]2CN(Cc3c([nH]c4ccccc34)[C@@](C(=O)OC)(c3cc4c(cc3OC)N(C)[C@H]3[C@@](O)(C(=O)OC)[C@H](OC(C)=O)[C@]5(CC)[C@@H]6C[C@@H]6CN6CC[C@]43[C@@H]65)C2)C1	0.106 µM	> 4.38 µM	0.234 µM	> 4.38 µM	0.0181	> 4.38	0.0701 µM	> 4.38 µM	0.148 µM	> 4.38 µM	0.0433	> 4.38	0.0159 µM	> 4.38 µM	> 4.38 µM	> 4.38 µM	0.0369 µM	> 4.38 µM	0.109 µM	> 4.38 µM
COc1ccc(C2SC(N)=Nc3c2c(C)nn3C(=O)c2ccncc2)cc1 (stereo not drawn)		> 100 µM		> 100 µM		> 100		> 100 µM		> 100 µM		> 100		> 100 µM		> 100 µM		> 100 µM		> 100 µM
C#Cc1cccc(NC(=O)Nc2ccccc2NC(=O)CCl)c1	32 µM	> 82.5 µM	25.4 µM	> 82.5 µM	16.6	> 82.5	19.3 µM	45.2 µM	15.2 µM	43.2 µM	28.9	> 82.5	25.2 µM	> 82.5 µM	26.7 µM	> 82.5 µM	20.8 µM	> 82.5 µM	16.5 µM	33.9 µM
